PubChem BioAssay AID1919010 (Molecular Pharmacology Branch, DTP, NCI, 2023)
One block for each molecule: values may come before it.

System: Hs578T complex spheroid growth, percent test/control
Experiment: Anticancer human tumor Hs578T cell line growth inhibition [AhR];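 also: luminescent viability signal as a proxy for spheroid growth; spheroids exposed to agents for one week after three days of growth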
Details: for IC50: curve of first compound; for viability, T/C: stronger effect = lower value
In short: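 Complex tumor spheroids co-cultured with HUVEC and human MSC stroma; AhR antagonists tested in combination with standard-of-care and investigational agents. Top concentration at or near clinical Cmax (else 10 microM), half-log dilutions; growth expressed as percent test/control.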

[1] = second compound 0.1 µM, first compound 0.000949 µM
[2] = second compound 0.1 µM, first compound 0.003 µM
[3] = second compound 0.1 µM, first compound 0.00949 µM
[4] = second compound 0.1 µM, first compound 0.03 µM
[5] = second compound 0.1 µM, first compound 0.0949 µM
[6] = second compound 0.1 µM, first compound 0.3 µM
[7] = second compound 0.316 µM, first compound 0.000949 µM
[8] = second compound 0.316 µM, first compound 0.003 µM
[9] = second compound 0.316 µM, first compound 0.00949 µM
[10] = second compound 0.316 µM, first compound 0.03 µM
[11] = second compound 0.316 µM, first compound 0.0949 µM
[12] = second compound 0.316 µM, first compound 0.3 µM
[13] = second compound 1 µM, first compound 0.000949 µM
[14] = second compound 1 µM, first compound 0.003 µM
[15] = second compound 1 µM, first compound 0.00949 µM
[16] = second compound 1 µM, first compound 0.03 µM
[17] = second compound 1 µM, first compound 0.0949 µM
[18] = second compound 1 µM, first compound 0.3 µM
[19] = second compound 3.16 µM, first compound 0.000949 µM
[20] = second compound 3.16 µM, first compound 0.003 µM
[21] = second compound 3.16 µM, first compound 0.00949 µM
[22] = second compound 3.16 µM, first compound 0.03 µM
[23] = second compound 3.16 µM, first compound 0.0949 µM
[24] = second compound 3.16 µM, first compound 0.3 µM
[25] = second compound 10 µM, first compound 0.000949 µM
[26] = second compound 10 µM, first compound 0.003 µM
[27] = second compound 10 µM, first compound 0.00949 µM
[28] = second compound 10 µM, first compound 0.03 µM
[29] = second compound 10 µM, first compound 0.0949 µM
[30] = second compound 10 µM, first compound 0.3 µM

IC50 (second compound 0.1 µM): 4.72 nM | IC50 (second compound 0.316 µM): 4.44 nM | IC50 (second compound 1 µM): 4.61 nM | IC50 (second compound 3.16 µM): 5.03 nM | IC50 (second compound 10 µM): 3.79 nM
SMILES: CC(C)CC(NC(=O)C(Cc1ccccc1)NC(=O)c1cnccn1)B(O)O (stereo not given) + CC(CO)NC(=O)c1cc(-c2ccc(Cl)cc2)nn(-c2cnn(C)c2)c1=O
viability, T/C [1]: 97.9% | viability, T/C [2]: 75.7% | viability, T/C [3]: 10.4% | viability, T/C [4]: 0.34% | viability, T/C [5]: 0.56% | viability, T/C [6]: 0.73% | viability, T/C [7]: 109% | viability, T/C [8]: 72.6% | viability, T/C [9]: 6.27% | viability, T/C [10]: 0.48% | viability, T/C [11]: 0.41% | viability, T/C [12]: 0.41% | viability, T/C [13]: 102% | viability, T/C [14]: 72% | viability, T/C [15]: 13.1% | viability, T/C [16]: 0.32% | viability, T/C [17]: 0.27% | viability, T/C [18]: 0.39% | viability, T/C [19]: 102% | viability, T/C [20]: 80.1% | viability, T/C [21]: 13.2% | viability, T/C [22]: 0.29% | viability, T/C [23]: 0.26% | viability, T/C [24]: 0.35% | viability, T/C [25]: 85.6% | viability, T/C [26]: 59.8% | viability, T/C [27]: 11.6% | viability, T/C [28]: 0.72% | viability, T/C [29]: 0.38% | viability, T/C [30]: 0.53%

IC50 (second compound 0.1 µM): 84.6 nM | IC50 (second compound 0.316 µM): 130 nM | IC50 (second compound 1 µM): 68.7 nM | IC50 (second compound 3.16 µM): 39.1 nM | IC50 (second compound 10 µM): 8.73 nM
SMILES: CCc1c2c(nc3ccc(O)cc13)-c1cc3c(c(=O)n1C2)COC(=O)[C@]3(O)CC + Cc1ccccc1N=Nc1ccc(NC(=O)c2ccnn2C)c(C)c1
viability, T/C [1]: 77.4% | viability, T/C [2]: 76.4% | viability, T/C [3]: 73.1% | viability, T/C [4]: 57.9% | viability, T/C [5]: 50.8% | viability, T/C [6]: 31.5% | viability, T/C [7]: 91% | viability, T/C [8]: 78.4% | viability, T/C [9]: 72.1% | viability, T/C [10]: 65.4% | viability, T/C [11]: 53% | viability, T/C [12]: 41.5% | viability, T/C [13]: 72.8% | viability, T/C [14]: 69.4% | viability, T/C [15]: 69.1% | viability, T/C [16]: 60.9% | viability, T/C [17]: 45.7% | viability, T/C [18]: 36.7% | viability, T/C [19]: 69.1% | viability, T/C [20]: 73.8% | viability, T/C [21]: 62.5% | viability, T/C [22]: 52% | viability, T/C [23]: 41.8% | viability, T/C [24]: 31.9% | viability, T/C [25]: 60.4% | viability, T/C [26]: 51.1% | viability, T/C [27]: 50.7% | viability, T/C [28]: 46.3% | viability, T/C [29]: 34.7% | viability, T/C [30]: 30.3%

IC50 (second compound 0.1 µM): > 10000 nM | IC50 (second compound 0.316 µM): > 10000 nM | IC50 (second compound 1 µM): > 10000 nM | IC50 (second compound 3.16 µM): < 31.6 nM | IC50 (second compound 10 µM): < 31.6 nM
SMILES: Nc1ccn(C2OC(CO)C(O)C2(F)F)c(=O)n1 (stereo not given) + Cc1cncc(-c2nc(NCCc3c[nH]c4ccccc34)c3ncn(C(C)C)c3n2)c1
viability, T/C (second compound 0.1 µM, first compound 0.0316 µM): 59.4% | viability, T/C (second compound 0.1 µM, first compound 0.1 µM): 59.6% | viability, T/C (second compound 0.1 µM, first compound 0.316 µM): 62.6% | viability, T/C (second compound 0.1 µM, first compound 1 µM): 56.5% | viability, T/C (second compound 0.1 µM, first compound 3.16 µM): 57.5% | viability, T/C (second compound 0.1 µM, first compound 10 µM): 56.8% | viability, T/C (second compound 0.316 µM, first compound 0.0316 µM): 67.2% | viability, T/C (second compound 0.316 µM, first compound 0.1 µM): 65.4% | viability, T/C (second compound 0.316 µM, first compound 0.316 µM): 63% | viability, T/C (second compound 0.316 µM, first compound 1 µM): 60.9% | viability, T/C (second compound 0.316 µM, first compound 3.16 µM): 59.4% | viability, T/C (second compound 0.316 µM, first compound 10 µM): 59.2% | viability, T/C (second compound 1 µM, first compound 0.0316 µM): 61.6% | viability, T/C (second compound 1 µM, first compound 0.1 µM): 65.2% | viability, T/C (second compound 1 µM, first compound 0.316 µM): 56.3% | viability, T/C (second compound 1 µM, first compound 1 µM): 57.8% | viability, T/C (second compound 1 µM, first compound 3.16 µM): 56.8% | viability, T/C (second compound 1 µM, first compound 10 µM): 56.2% | viability, T/C (second compound 3.16 µM, first compound 0.0316 µM): 37.8% | viability, T/C (second compound 3.16 µM, first compound 0.1 µM): 42.8% | viability, T/C (second compound 3.16 µM, first compound 0.316 µM): 41.1% | viability, T/C (second compound 3.16 µM, first compound 1 µM): 40.4% | viability, T/C (second compound 3.16 µM, first compound 3.16 µM): 33.3% | viability, T/C (second compound 3.16 µM, first compound 10 µM): 37.8% | viability, T/C (second compound 10 µM, first compound 0.0316 µM): 4.28% | viability, T/C (second compound 10 µM, first compound 0.1 µM): 4.47% | viability, T/C (second compound 10 µM, first compound 0.316 µM): 3.43% | viability, T/C (second compound 10 µM, first compound 1 µM): 2.76% | viability, T/C (second compound 10 µM, first compound 3.16 µM): 3.29% | viability, T/C (second compound 10 µM, first compound 10 µM): 4.67%
